Assay results reported in ChEMBL document CHEMBL1129868 (Bioorg Med Chem Lett, 1997).

Experiments:
[1] = target: Adrenergic receptor beta (Rattus norvegicus, UniProt P18090+P10608+P26255); test: The compound was tested for its ability to inhibit (-)-[3H]dihydroalprenolol binding to beta-adrenergic receptor sites in rat cortex
[2] = Ratio of beta-1-adrenergic blocking effect to that of beta 2 -adrenergic blocking effect; assay type: functional
[3] = target: Beta-1 adrenergic receptor (Cavia porcellus, UniProt B0FL73); test: Tested for beta-1-adrenergic blocking effect by measuring the ability to inhibit the positive inotropic effect of isoproterenol on the isolated right atrium of guinea pigs; assay type: functional, tissue-based, Cardiac atrium
Chain of Beta-1 adrenergic receptor (B0FL73 whole entry): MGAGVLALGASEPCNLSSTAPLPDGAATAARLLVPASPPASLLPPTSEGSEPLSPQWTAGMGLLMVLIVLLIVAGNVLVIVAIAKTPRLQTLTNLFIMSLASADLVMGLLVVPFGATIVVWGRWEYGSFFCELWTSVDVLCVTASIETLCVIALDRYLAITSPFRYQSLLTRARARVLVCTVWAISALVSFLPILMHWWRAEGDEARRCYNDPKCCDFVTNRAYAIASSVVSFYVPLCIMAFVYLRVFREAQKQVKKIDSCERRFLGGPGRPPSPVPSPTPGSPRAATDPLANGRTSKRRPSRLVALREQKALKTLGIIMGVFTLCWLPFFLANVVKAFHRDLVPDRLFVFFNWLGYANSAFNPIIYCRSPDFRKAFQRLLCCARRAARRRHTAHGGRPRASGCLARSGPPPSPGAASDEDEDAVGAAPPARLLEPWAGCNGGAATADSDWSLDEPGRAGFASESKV

| Compound | IC50 [1] [µM] | Ratio [2] | IC50 [3] [nM] |
| --- | --- | --- | --- |
| COCCc1ccc(OC(F)(F)[C@H](O)CNC(C)C)cc1 | > 100 | – | – |
| COCCc1ccc(OC(F)(F)[C@@H](O)CNC(C)C)cc1 | 1.54 | 0.63 | 1350 |
